The values below come from PMC10433220, “Oil palm kernel globulin antihypertensive peptides: isolation and characterization, ACE inhibition mechanisms, zinc-chelating activity, security and stability” (Frontiers in Pharmacology, 2023).

In data set [1] the target is T1, ACE (Oryctolagus cuniculus, UniProt P12822).
T1 construct: purchased Sigma (St. Louis, MO, United States)
T1 sequence (P12822 34-1310): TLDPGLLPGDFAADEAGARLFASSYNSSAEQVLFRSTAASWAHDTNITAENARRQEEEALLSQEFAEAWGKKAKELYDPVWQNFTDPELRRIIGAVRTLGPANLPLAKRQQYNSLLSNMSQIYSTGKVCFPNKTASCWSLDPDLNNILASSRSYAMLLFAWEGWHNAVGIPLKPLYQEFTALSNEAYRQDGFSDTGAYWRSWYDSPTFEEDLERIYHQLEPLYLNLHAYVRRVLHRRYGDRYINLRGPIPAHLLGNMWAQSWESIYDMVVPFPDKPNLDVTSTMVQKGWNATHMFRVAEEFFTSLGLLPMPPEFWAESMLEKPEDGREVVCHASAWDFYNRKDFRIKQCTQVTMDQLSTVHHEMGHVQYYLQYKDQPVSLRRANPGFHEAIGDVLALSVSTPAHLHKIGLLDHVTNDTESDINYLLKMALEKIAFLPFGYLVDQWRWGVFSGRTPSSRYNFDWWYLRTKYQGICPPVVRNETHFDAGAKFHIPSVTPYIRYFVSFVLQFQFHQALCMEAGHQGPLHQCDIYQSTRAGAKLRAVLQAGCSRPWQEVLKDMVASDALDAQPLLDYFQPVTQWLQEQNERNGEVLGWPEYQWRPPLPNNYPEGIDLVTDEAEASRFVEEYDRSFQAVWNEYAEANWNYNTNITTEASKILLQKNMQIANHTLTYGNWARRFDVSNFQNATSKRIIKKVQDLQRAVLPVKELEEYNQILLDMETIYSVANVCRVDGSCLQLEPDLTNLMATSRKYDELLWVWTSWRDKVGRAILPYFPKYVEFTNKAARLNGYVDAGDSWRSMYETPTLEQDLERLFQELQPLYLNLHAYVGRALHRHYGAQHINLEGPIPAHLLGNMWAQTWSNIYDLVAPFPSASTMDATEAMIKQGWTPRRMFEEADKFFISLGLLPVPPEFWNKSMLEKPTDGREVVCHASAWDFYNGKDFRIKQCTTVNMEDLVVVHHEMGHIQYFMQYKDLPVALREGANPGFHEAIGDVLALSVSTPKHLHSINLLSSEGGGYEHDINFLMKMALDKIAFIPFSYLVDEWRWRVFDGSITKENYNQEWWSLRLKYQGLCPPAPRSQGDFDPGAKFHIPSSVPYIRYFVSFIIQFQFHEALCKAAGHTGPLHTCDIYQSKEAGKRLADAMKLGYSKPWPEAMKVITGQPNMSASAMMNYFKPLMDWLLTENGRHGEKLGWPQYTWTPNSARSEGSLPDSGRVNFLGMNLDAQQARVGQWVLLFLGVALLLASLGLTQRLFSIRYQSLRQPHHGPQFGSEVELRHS
Further details: method as in 2 sources, one per row (each row's own in cited_ref): ref Wang et al., 2021 ||| ref Wei et al., 2022. To be noted: cited from earlier work.

Data set [2] is described as follows: Zinc solubility of peptide-Zn complexes during simulated gastrointestinal digestion. Format: in vitro ADME. Conditions: simulated intestinal digestion, from 120 to 240 min; p < 0.05. How it is done:
Simultaneously, 5 mg of the DOPKGH peptide-Zn complexes was mixed with 50 mL of simulated gastric digested mucus (pH 2.00 ± 0.10) ([Sun et al., 2021]). After shaking at 37°C and 135 rpm for 90 min, Na2HPO4 (0.5 mol/L) was added and the mixture was quickly stirred until the pH of the digest increased to 6.80 ± 0.10. […] The stability of DOPKGH peptide-Zn complexes was expressed as the residual zinc concentration after digestion and as a percentage of the zinc concentration before digestion.

The target of data set [3] is T1, ACE. To be noted: Val residue at the N-terminal; peptide from King Bolete mushrooms; ref Kaprasob et al., 2022; cited from earlier work. The source says:
Moreover, Lys or Arg residues in C-terminal tripeptide are instrumental in the ACE-inhibitory ability of peptides ([Urbizo-Reyes et al., 2022]).

Data set [4] is described as follows: Zn-chelating ability (4-(2-Pyridinazo)-resorcinol method). To be noted: 350 μg sample, zinc sulfate 0.25 mmol/L, DTT, HEPES-KOH buffer, 37°C, 12 min, PAR method, absorbance 500 nm; mean ± SD, at least three repeats. Format: physicochemical. How it is done: DOPKGH peptides (350 μg), 0.5 mL zinc sulfate solution (0.25 mmol/L), 0.5 mL DTT (8 mmol/L), 1 mL HEPES-KOH buffer (100 μmol/L), and 8 mL dH2O were mixed thoroughly ([Li et al., 2023]). After stirring at 175 r/min and 37°C for 12 min, the zinc concentration of the reaction solution was measured using the 4-(2-Pyridinazo)-resorcinol method ([Udechukwu et al., 2018]). The standard regression curve of the zinc concentration (x, μg/mL) with absorbance at 500 nm (y) was y = 0.0901n(x) + 0.1012, and R^2 = 0.9802 ([Li et al., 2023]). The zinc chelation rate was defined as the reduction of zinc ions in the reaction solution per unit mass of sample (mg/g).
Amino acid sequence identification was conducted using a Q Exactive hybrid quadrupole orbitrap mass spectrometer (Thermo Fisher, Bremen, Germany) coupled with Peak-Studio-7.5-De-Novo™ software (Bioinformatics Solutions, Inc., Waterloo, Canada) according to the method described by [Li et al. (2022)]. The DOPKGH sequences were verified by matching with the sequences of Elaeis guineensis recorded in the Biotechnology Information Database (Bethesda, MD, United States). The Zn-chelating ability of the obtained sequences was measured using the 4-(2-Pyridinazo)-resorcinol method ([Udechukwu et al., 2018]). […] In addition, the physicochemical characteristics of the screened DOPKGH sequences were analyzed using the AHTPDB database.

In data set [5] the target is T1, ACE. Nature of the data set: ACE inhibitory activity (HHL substrate, hippuric acid absorbance at 228 nm). Format: biochemical. Conditions: synthesized peptide, untreated; ACE 25 mU, HHL 8.3 mmol/L, 37°C, 60 min, absorbance 228 nm; from regression y = 10.985 ln(x) ‒ 0.8859, R2 = 0.9458; read-out: ACE inhibition capacity (IC50). How it is done: (§1) ACE inhibitory activity was determined using the procedure described by [Zaharuddin et al. (2022)]. Briefly, ACE (25 mU) was pre-incubated at 37°C for 10 min. Then ACE (75 µL), 225 µL of HHL (8.3 mmol/L), and the peptide solution (75 µL) were mixed and stirred at 75 rpm and 37°C for 60 min. The reaction was stopped by adding 375 µL of HCl (1 mol/L). Afterward 2.1 mL of ethyl acetate was added to extract the hippuric acid produced. The mixture was centrifuged at 14,000 g for 150 s. Subsequently, 1 mL of the upper solution (ethyl acetate extraction) was transferred to a glass test tube and heated at 120°C for 32 min. The tube was cooled to 25°C, deionized water (1 mL) was added, and the absorbance was measured at 228 nm. The control group was subjected to the same procedure, but without samples. The ACE inhibition ability of the samples was defined as the percentage of the difference in absorbance at 228 nm between the sample and control as compared to the absorbance at 228 nm of the control. The concentration of peptides required to inhibit half of the ACE activity was defined as the IC50.

For data set [6], the target named is T1, ACE. Description: Stability of ACE inhibitory activity under simulated gastrointestinal hydrolysis. The format is in vitro ADME. How it is done: as §1
The simulation intestinal digest mucus (pH 6.80 ± 0.10) was composited of 6 g bile salt, 0.07 g pancreatin, 12.5 g NaHCO3, and 200 mL ultrapure water. […] The ACE inhibitory activity of the DOPKGH peptide was determined using untreated DOPKGH peptides for comparison.

Read-outs that look alike come from different tables or passages of the source. Where no end group is shown, it is not given here.

As for PHQPLPP, the “ACE inhibition IC50” value in the data set with ACE [1] (peptide identified in rubing cheese, ref Wei et al., 2022) was 821 µg/mL.
With `O=C([O-])[C@H](O)[C@@H](O)[C@H](O)[C@H](O)CO.O=C([O-])[C@H](O)[C@@H](O)[C@H](O)[C@H](O)CO.[Zn+2]` [zinc gluconate, Zinc gluconate], the “Zinc solubility compared with zinc sulfate” value in data set [2] is given as “higher zinc solubility than that of zinc sulfate”.
Turning to “VSWNVLQEP [literature peptide identified in King Bolete mushrooms]”, the “Binding energy with ACE” value on ACE [3] was -9.1 kcal/mol.
In the case of “QRLERCK [Gln-Arg-Leu-Asp-Arg-Cys-Lys, oligopeptide identified in defatted oil palm kernel globulin hydrolysates]”, the Zinc chelating capacity in data set [4] is given as 17.30 ± 1.46^g mg/g.
One may read the IC50 as the concentration needed to halve the response being measured. Consider EVPQAYIP, for which the IC50 was 103 µM on ACE [5] and 144 µM at ACE [6] (simulated gastric digest (pepsin 0.35 mg/mL, pH 2.0) 37°C 80 min, then intestinal digest (pancreatin, bile salt, pH 6.8) 37°C 150 min, regression y = 13.536ln(x) ‒ 17.297, R2 = 0.9528, read-out: IC50 against ACE after gastrointestinal digestion). In addition, the “ACE-inhibitory activity retained after gastrointestinal digestion” value on ACE [6] (simulated gastric (pepsin, pH 2.0, 80 min) then intestinal (pancreatin, pH 6.8, 150 min) digestion, 37°C, versus untreated peptide) is 71.23%.
Regarding GNPLSP, the IC50 in the data set with ACE [1] (peptide derived from Arthrospira platensis, ref Wang et al., 2021, read-out: ACE inhibition IC50) was 264 µM.
